Consider 15 molecules from patent publication US12685735B2 (Foghorn Therapeutics Inc., priority 2020, dated 2026).

The term IC50 denotes the concentration that gives 50% inhibition.

One experiment concerns the target BRM (Homo sapiens, UniProt P51531). As to the kind of experiment: ATPase catalytic activity assay of BRM (ADP-Glo). The class given is biochemical. As to conditions: for IC50: read-out: BRM IC50 (μM)*. In short, it runs like this:
(§1)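 ADP formed by the ATPase reaction was quantified by ADP-Glo luminescence. After the reaction, unconsumed ATP was depleted (40 min, room temperature), then ADP was converted to ATP for luciferase detection (60 min, room temperature) before reading on a luminometer.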
On the technique in general: In ADP-Glo the light output rises with the ADP produced.

The target in another experiment is BRG-1 (Homo sapiens, UniProt P51532). Put plainly: ATPase catalytic activity assay of BRG-1 (ADP-Glo). The class given is biochemical. Particulars: ATPase catalytic activity, ADP-Glo; for IC50: read-out: BRG1 IC50 (μM)*; for Emax: read-out: BRG1 Max % Inhibition. In short, it runs like this: as §1
BRG-1, sequence (P51532 whole entry): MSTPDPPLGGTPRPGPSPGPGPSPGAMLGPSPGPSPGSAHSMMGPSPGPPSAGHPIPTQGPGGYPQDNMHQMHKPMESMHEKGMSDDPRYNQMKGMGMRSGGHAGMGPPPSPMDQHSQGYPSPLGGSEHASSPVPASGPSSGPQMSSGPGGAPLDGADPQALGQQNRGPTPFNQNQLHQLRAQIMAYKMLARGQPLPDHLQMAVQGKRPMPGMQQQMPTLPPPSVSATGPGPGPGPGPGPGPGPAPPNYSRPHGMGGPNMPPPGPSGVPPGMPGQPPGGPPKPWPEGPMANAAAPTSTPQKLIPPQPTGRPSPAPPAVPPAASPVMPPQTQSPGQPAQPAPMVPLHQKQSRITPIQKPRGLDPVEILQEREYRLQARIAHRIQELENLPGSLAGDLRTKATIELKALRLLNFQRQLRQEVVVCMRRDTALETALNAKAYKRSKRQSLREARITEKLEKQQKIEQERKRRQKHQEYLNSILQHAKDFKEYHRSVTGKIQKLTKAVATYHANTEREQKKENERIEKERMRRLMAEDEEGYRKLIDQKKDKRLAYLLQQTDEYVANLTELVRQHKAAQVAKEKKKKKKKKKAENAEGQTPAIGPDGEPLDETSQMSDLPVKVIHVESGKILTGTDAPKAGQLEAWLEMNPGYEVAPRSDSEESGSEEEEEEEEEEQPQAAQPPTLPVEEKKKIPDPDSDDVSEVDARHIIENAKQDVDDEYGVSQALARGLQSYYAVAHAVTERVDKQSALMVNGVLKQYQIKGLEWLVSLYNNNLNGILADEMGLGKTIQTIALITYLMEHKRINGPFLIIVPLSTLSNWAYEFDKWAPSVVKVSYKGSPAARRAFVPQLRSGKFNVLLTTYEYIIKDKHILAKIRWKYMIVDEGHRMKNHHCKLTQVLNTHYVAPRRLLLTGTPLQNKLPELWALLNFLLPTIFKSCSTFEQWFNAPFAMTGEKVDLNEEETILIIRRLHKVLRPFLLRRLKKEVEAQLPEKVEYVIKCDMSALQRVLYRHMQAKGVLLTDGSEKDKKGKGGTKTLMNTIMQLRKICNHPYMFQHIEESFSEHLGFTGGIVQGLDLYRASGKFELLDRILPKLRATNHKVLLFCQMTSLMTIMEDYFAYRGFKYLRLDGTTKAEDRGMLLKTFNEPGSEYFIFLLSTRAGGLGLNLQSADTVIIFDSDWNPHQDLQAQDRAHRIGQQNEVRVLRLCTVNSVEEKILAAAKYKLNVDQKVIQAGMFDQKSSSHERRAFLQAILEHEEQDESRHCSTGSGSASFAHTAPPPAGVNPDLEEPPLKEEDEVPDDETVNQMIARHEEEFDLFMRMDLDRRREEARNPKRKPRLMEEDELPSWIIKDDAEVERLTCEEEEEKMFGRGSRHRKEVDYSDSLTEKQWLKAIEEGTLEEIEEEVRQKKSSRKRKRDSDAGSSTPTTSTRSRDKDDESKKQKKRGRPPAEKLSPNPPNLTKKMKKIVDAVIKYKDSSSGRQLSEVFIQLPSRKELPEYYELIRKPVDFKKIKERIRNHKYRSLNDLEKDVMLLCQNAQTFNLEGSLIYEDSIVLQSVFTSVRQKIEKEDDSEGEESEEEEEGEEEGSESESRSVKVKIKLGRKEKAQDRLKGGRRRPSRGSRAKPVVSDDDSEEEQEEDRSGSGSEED

BRM, sequence (P51531 whole entry): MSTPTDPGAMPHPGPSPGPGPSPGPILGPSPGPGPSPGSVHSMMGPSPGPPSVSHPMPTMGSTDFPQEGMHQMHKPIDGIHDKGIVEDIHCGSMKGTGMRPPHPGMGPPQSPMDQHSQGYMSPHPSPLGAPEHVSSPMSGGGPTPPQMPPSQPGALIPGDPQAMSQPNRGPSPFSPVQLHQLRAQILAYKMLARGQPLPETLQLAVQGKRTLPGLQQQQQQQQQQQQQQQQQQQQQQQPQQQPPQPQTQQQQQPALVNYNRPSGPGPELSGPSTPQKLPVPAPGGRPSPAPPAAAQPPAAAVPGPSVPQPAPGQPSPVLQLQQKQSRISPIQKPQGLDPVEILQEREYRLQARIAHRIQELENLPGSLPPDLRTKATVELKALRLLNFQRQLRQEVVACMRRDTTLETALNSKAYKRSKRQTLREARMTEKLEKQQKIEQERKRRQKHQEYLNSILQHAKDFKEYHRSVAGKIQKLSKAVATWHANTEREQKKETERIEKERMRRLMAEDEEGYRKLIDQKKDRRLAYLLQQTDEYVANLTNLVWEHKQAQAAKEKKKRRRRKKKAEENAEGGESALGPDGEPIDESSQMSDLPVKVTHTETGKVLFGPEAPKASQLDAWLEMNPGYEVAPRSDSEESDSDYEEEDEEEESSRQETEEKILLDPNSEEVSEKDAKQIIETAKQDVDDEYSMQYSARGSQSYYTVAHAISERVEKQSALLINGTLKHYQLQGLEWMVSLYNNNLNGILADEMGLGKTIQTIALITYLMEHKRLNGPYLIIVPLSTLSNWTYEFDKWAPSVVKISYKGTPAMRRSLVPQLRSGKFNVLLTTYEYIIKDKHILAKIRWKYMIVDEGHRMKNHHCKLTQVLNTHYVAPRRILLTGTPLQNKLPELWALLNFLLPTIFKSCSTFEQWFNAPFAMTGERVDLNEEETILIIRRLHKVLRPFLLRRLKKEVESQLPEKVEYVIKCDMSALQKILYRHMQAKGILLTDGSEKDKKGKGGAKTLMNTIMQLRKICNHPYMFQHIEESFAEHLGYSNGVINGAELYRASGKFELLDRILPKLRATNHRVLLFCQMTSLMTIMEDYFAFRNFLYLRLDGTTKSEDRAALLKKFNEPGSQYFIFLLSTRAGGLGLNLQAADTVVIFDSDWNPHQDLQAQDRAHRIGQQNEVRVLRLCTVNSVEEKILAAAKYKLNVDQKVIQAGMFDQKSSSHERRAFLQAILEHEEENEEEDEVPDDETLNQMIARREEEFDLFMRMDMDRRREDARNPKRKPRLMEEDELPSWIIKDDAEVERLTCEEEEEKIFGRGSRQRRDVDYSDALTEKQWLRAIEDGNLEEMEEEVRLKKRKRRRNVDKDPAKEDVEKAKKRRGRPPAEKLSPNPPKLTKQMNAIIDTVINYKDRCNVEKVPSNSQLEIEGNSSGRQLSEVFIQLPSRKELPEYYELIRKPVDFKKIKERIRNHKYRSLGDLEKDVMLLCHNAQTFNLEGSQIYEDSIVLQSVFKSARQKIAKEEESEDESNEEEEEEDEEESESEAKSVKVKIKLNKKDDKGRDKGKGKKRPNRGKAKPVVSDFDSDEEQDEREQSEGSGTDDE

On to `C[C@@H]1CN(c2cccc(-c3csc(NC(=O)CNC(=O)c4cccc([C@]5(F)C[C@@](C)(O)C5)c4)n3)c2)C[C@H](C)O1` [Compound 317, N-(2-((4-(3-((cis)-2,6-dimethylmorpholino)phenyl)thiazol-2-yl)amino)-2-oxoethyl)-3-((1s,3s)-1-fluoro-3-hydroxy-3-methylcyclobutyl)benzamide], for which, at BRM, the “BRM Max % Inhibition” value is over 95% and the IC50 was under 0.1 µM. At BRG-1, the IC50 was 1 to 5 µM and the Emax was over 95%.

Turning to `C[C@@H]1CN(c2cccc(-c3csc(NC(=O)CNC(=O)c4cccc(C5(F)CC6(COC6)C5)c4)n3)n2)C[C@H](C)O1` [Compound 318, N-(2-((4-(6-((cis)-2,6-dimethylmorpholino)pyridin-2-yl)thiazol-2-yl)amino)-2-oxoethyl)-3-(6-fluoro-2-oxaspiro[3.3]heptan-6-yl)benzamide], on BRM, the “BRM Max % Inhibition” value is reported as over 90% and the IC50 was 0.1 to 1 µM. On BRG-1, the IC50 was over 5 µM and the Emax is over 90%.

As for `C[C@@H]1CN(c2cccc(-c3csc(NC(=O)CNC(=O)c4ccc5c(c4)[C@@H](C)COC5)n3)n2)C[C@H](C)O1` [Compound 320, (R)-N-(2-((4-(6-((cis)-2,6-dimethylmorpholino)pyridin-2-yl)thiazol-2-yl)amino)-2-oxoethyl)-4-methylisochromane-6-carboxamide], on BRM, the “BRM Max % Inhibition” value was over 95% and the IC50 is under 0.1 µM. Further, at BRG-1, the 50% inhibitory concentration (IC50) was 0.1 to 1 µM and the Emax is over 95%.

On to `C[C@@H]1CN(c2cccc(-c3csc(NC(=O)CNC(=O)c4ccc5c(c4)[C@H](C)COC5)n3)n2)C[C@H](C)O1` [Compound 321, (S)-N-(2-((4-(6-((cis)-2,6-dimethylmorpholino)pyridin-2-yl)thiazol-2-yl)amino)-2-oxoethyl)-4-methylisochromane-6-carboxamide], for which, at BRM, the “BRM Max % Inhibition” value is over 90% and the IC50 is under 0.1 µM. Further, at BRG-1, the IC50 lay in the range of 0.1 to 1 µM and the Emax was over 90%.

With `C[C@@]1(C#N)COCc2ccc(C(=O)NCC(=O)Nc3nc(-c4cccc(F)c4)cs3)cc21` [Compound 322, (R)-4-cyano-N-(2-((4-(3-fluorophenyl)thiazol-2-yl)amino)-2-oxoethyl)-4-methylisochromane-6-carboxamide], at BRM, the “BRM Max % Inhibition” value is given as over 95% and the IC50 was under 0.1 µM. Also, at BRG-1, the half-maximal inhibitory concentration (IC50) was 0.1 to 1 µM and the Emax was over 95%.

Consider `C[C@@]1(C#N)COCc2ccc(C(=O)NCC(=O)Nc3nc(-c4ccccc4)cs3)cc21` [Compound 323, (R)-4-cyano-4-methyl-N-(2-oxo-2-((4-phenylthiazol-2-yl)amino)ethyl)isochromane-6-carboxamide], for which, at BRM, the “BRM Max % Inhibition” value is over 95% and the IC50 was under 0.1 µM. Moreover, on BRG-1, the half-inhibitory concentration (IC50) fell in the range of 0.1 to 1 µM and the Emax is over 95%.

Regarding `C[C@@H]1CN(c2cccc(-c3csc(NC(=O)CNC(=O)c4ccc5c(c4)C(O)(C(F)F)COC5)n3)c2)C[C@H](C)O1` (stereo partly drawn) [Compound 326, 4-(difluoromethyl)-N-(2-((4-(3-((cis)-2,6-dimethylmorpholino)phenyl)thiazol-2-yl)amino)-2-oxoethyl)-4-hydroxyisochromane-6-carboxamide], at BRM, the “BRM Max % Inhibition” value is over 95% and the IC50 is under 0.1 µM. For the same molecule, at BRG-1, the IC50 fell in the range of 0.1 to 1 µM and the Emax is over 95%.

For the molecule `C[C@@]1(C#N)COCc2ccc(C(=O)NCC(=O)Nc3nc(-c4cccc(N5CCC56COC6)c4)cs3)cc21` [Compound 328, (R)-N-(2-((4-(3-(6-oxa-1-azaspiro[3.3]heptan-1-yl)phenyl)thiazol-2-yl)amino)-2-oxoethyl)-4-cyano-4-methylisochromane-6-carboxamide], on BRM, the “BRM Max % Inhibition” value is over 95% and the IC50 is under 0.1 µM. In addition, at BRG-1, the IC50 lay in the range of 0.1 to 1 µM and the Emax is over 95%.

`C[C@@H]1CN(c2cccc(-c3csc(NC(=O)CNC(=O)c4ccc5c(c4)C(F)(C(F)F)COC5)n3)c2)C[C@H](C)O1` (stereo partly drawn) [Compound 329, 4-(difluoromethyl)-N-(2-((4-(3-((cis)-2,6-dimethylmorpholino)phenyl)thiazol-2-yl)amino)-2-oxoethyl)-4-fluoroisochromane-6-carboxamide]: at BRM, the “BRM Max % Inhibition” value is recorded as over 95% and the IC50 is under 0.1 µM. Besides, at BRG-1, the IC50 is under 0.1 µM and the Emax was over 95%.

For `C[C@@]1(F)COCc2ccc(C(=O)NCC(=O)Nc3nc(-c4ccnc(C5(O)CC5)c4)cs3)cc21` [Compound 330, (S)-4-fluoro-N-(2-((4-(2-(1-hydroxycyclopropyl)pyridin-4-yl)thiazol-2-yl)amino)-2-oxoethyl)-4-methylisochromane-6-carboxamide], on BRM, the “BRM Max % Inhibition” value is given as over 95% and the IC50 is under 0.1 µM. Besides, on BRG-1, the IC50 was in the range of 0.1 to 1 µM and the Emax is over 95%.

On to `C[C@@]1(F)COCc2ccc(C(=O)NCC(=O)Nc3nc(-c4cccc(C(F)F)n4)cs3)cc21` [Compound 331, (S)-N-(2-((4-(6-(difluoromethyl)pyridin-2-yl)thiazol-2-yl)amino)-2-oxoethyl)-4-fluoro-4-methylisochromane-6-carboxamide], for which, at BRM, the “BRM Max % Inhibition” value is given as over 95% and the IC50 is under 0.1 µM. Besides, on BRG-1, the IC50 fell in the range of 0.1 to 1 µM and the Emax was over 95%.

Take `C[C@@]1(F)COCc2ccc(C(=O)NCC(=O)Nc3nc(-c4cccc(N5CCC5)c4)cs3)cc21` [Compound 332, (S)-N-(2-((4-(3-(azetidin-1-yl)phenyl)thiazol-2-yl)amino)-2-oxoethyl)-4-fluoro-4-methylisochromane-6-carboxamide]: at BRM, the “BRM Max % Inhibition” value is listed as over 95% and the concentration for half-maximal inhibition (IC50) was under 0.1 µM. In addition, at BRG-1, the 50% inhibitory concentration (IC50) is under 0.1 µM and the Emax was over 95%.

Turning to `C[C@@]1(C#N)COCc2ccc(C(=O)NC3(C(=O)Nc4nc(-c5cccc(C(F)F)c5)cs4)CC3)cc21` [Compound 333, (R)-4-cyano-N-(1-((4-(3-(difluoromethyl)phenyl)thiazol-2-yl)carbamoyl)cyclopropyl)-4-methylisochromane-6-carboxamide], on BRM, the “BRM Max % Inhibition” value is given as over 75% and the IC50 fell in the range of 0.1 to 1 µM. At BRG-1, the IC50 lay in the range of 1 to 5 µM and the Emax is over 75%.

For `COc1cccc(-c2csc(NC(=O)CNC(=O)c3cc(OC)c4c(c3)[C@](C)(C#N)COC4)n2)c1` [Compound 335, (R)-4-cyano-8-methoxy-N-(2-((4-(3-methoxyphenyl)thiazol-2-yl)amino)-2-oxoethyl)-4-methylisochromane-6-carboxamide], on BRM, the “BRM Max % Inhibition” value was over 90% and the concentration for half-maximal inhibition (IC50) is 0.1 to 1 µM. Besides, at BRG-1, the IC50 was over 5 µM and the Emax was over 90%.

Turning to `COc1cccc(-c2csc(NC(=O)C3(NC(=O)c4ccc5c(c4)[C@](C)(C#N)COC5)CC3(F)F)n2)c1` (stereo partly drawn) [Compound 336, (R)-4-cyano-N-(2,2-difluoro-1-((4-(3-methoxyphenyl)thiazol-2-yl)carbamoyl)cyclopropyl)-4-methylisochromane-6-carboxamide], at BRM, the “BRM Max % Inhibition” value is over 85% and the IC50 was 0.1 to 1 µM. Also, on BRG-1, the IC50 was in the range of 1 to 5 µM and the Emax was over 85%.
